Reference: the supplement of paper PMC13380429

What was measured:
Settings in all cases: 72 h
U2OS [1] = experiment: cell viability relative to DMSO; higher = less toxic
Caco-2 [2] = experiment: as above
Calu-3 [3] = experiment: as above
HepG2 [4] = experiment: as above
Vero E6 [5] = experiment: as above
U2OS [6] = experiment: relative viability EC50 (midpoint between 100% and the lowest measured viability); higher = less toxic
Caco-2 [7] = experiment: as above
Calu-3 [8] = experiment: as above
HepG2 [9] = experiment: as above
Vero E6 [10] = experiment: as above
U2OS [11] = experiment: drug sensitivity score (DSS) for viability; higher = more toxic; extreme values may be limits of the assay
Caco-2 [12] = experiment: as above
Calu-3 [13] = experiment: as above
HepG2 [14] = experiment: as above
Vero E6 [15] = experiment: as above

SMILES	cell viability (U2OS [1]; 1 nM) [%]	cell viability (U2OS [1]; 10 nM) [%]	cell viability (U2OS [1]; 100 nM) [%]	cell viability (U2OS [1]; 1000 nM) [%]	cell viability (U2OS [1]; 10000 nM) [%]	cell viability (Caco-2 [2]; 1 nM) [%]	cell viability (Caco-2 [2]; 10 nM) [%]	cell viability (Caco-2 [2]; 100 nM) [%]	cell viability (Caco-2 [2]; 1000 nM) [%]	cell viability (Caco-2 [2]; 10000 nM) [%]	cell viability (Calu-3 [3]; 1 nM) [%]	cell viability (Calu-3 [3]; 10 nM) [%]	cell viability (Calu-3 [3]; 100 nM) [%]	cell viability (Calu-3 [3]; 1000 nM) [%]	cell viability (Calu-3 [3]; 10000 nM) [%]	cell viability (HepG2 [4]; 1 nM) [%]	cell viability (HepG2 [4]; 10 nM) [%]	cell viability (HepG2 [4]; 100 nM) [%]	cell viability (HepG2 [4]; 1000 nM) [%]	cell viability (HepG2 [4]; 10000 nM) [%]	cell viability (Vero E6 [5]; 1 nM) [%]	cell viability (Vero E6 [5]; 10 nM) [%]	cell viability (Vero E6 [5]; 100 nM) [%]	cell viability (Vero E6 [5]; 1000 nM) [%]	cell viability (Vero E6 [5]; 10000 nM) [%]	relative viability EC50 (U2OS [6]) [µM]	relative viability EC50 (Caco-2 [7]) [µM]	relative viability EC50 (Calu-3 [8]) [µM]	relative viability EC50 (HepG2 [9]) [µM]	relative viability EC50 (Vero E6 [10]) [µM]	drug sensitivity score (U2OS [11])	drug sensitivity score (Caco-2 [12])	drug sensitivity score (Calu-3 [13])	drug sensitivity score (HepG2 [14])	drug sensitivity score (Vero E6 [15])
NCCc1cc(O)c(O)cc1O [oxidopamine]	96	102	94.8	104	103	86.7	93.3	90.7	95.4	100	91.1	101	108	108	109	97.4	104	114	107	98.7	97.3	99.6	96.6	91.5	105	> 10	> 10	> 10	> 10	> 10	0	0	0	0	0
COc1cc2c(cc1OC)-c1cc3ccc(OC)c(OC)c3c[n+]1CC2 [palmatine-chloride]	101	101	98.5	102	92.6	103	99.1	92.8	102	90.9	94.1	105	100	90.1	90	110	101	107	105	77.1	100	99.3	99.6	102	101	> 10	> 10	> 10	> 10	> 10	0	0	0	0.6	0
COc1ccc(Cc2nccc3cc(OC)c(OC)cc23)cc1OC [papaverine]	101	92.5	99	96.5	89.7	95	91.9	95.8	86.1	77.8	91.3	98.8	98.8	87.6	81.2	111	109	92.9	100	32.7	103	105	105	108	90.1	> 10	> 10	> 10	3.17	> 10	0	1.7	1.5	3.7	0
NCCCC[C@@H]1NC(=O)[C@@H](Cc2c[nH]c3ccccc23)NC(=O)[C@H](c2ccccc2)NC(=O)[C@@H]2C[C@@H](OC(=O)NCCN)CN2C(=O)[C@H](Cc2ccccc2)NC(=O)[C@H](Cc2ccc(OCc3ccccc3)cc2)NC1=O [pasireotide]	96.7	104	95.8	102	108	108	107	88.4	110	146	102	101	87.8	106	108	91.9	105	114	102	93.3	98.9	89	96	83.6	96.8	> 10	> 10	> 10	> 10	> 10	0	0	0	0	0
